Reference: publication PMC9257625 (RSC Chemical Biology, 2022)
Positions of bridges follow the written chain, without caps; N, C: chain ends. Non-standard residues stand in square brackets, D forms with d. Residues, ends and D or L forms follow the SMILES beside them. S5 = C=CCCC[C@](C)(N)C(=O)O

Tests used:
[1] = Circular dichroism spectroscopy, percent helicity; type: physicochemical; settings: CD θ220, 10 mM phosphate buffer pH 7.4, 50 μM peptide
pepsin = pepsin (Sus scrofa, UniProt P00791); assay: Protease stability assay, pepsin; type: in vitro ADME, porcine; settings: acidic pH
pepsin, sequence (P00791 60-385): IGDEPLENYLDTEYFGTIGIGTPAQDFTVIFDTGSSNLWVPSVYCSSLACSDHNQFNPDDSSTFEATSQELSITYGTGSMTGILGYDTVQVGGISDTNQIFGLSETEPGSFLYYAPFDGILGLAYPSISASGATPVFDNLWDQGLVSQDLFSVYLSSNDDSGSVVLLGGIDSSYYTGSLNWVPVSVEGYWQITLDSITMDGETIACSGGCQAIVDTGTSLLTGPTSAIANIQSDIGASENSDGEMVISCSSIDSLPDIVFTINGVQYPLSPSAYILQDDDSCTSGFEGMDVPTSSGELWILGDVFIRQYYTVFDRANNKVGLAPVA

proteinase K = proteinase K (Parengyodontium album, UniProt P06873); assay: Protease stability assay, proteinase K; type: in vitro ADME, fungal
proteinase K, sequence (P06873 106-384): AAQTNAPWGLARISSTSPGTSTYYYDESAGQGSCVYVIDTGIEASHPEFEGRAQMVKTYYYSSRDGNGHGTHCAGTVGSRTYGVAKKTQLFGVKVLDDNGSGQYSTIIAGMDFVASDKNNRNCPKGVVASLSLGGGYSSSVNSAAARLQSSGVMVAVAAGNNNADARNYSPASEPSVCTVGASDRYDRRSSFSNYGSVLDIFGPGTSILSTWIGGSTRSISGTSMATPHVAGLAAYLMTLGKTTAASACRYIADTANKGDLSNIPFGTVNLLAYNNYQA

Compound | Percent helicity [1] | Cleavage by pepsin (in words) (pepsin) | Cleavage by / resistance to proteinase K (in words) (proteinase K)
CC(=O)N[C@@H](CC(C)C)C(=O)N[C@H](C(=O)N[C@@H](Cc1ccccc1)C(=O)N[C@@]1(C)CCCC=CCCC[C@@](C)(C(=O)N[C@@H](CCC(N)=O)C(=O)N[C@@H](CC(C)C)C(=O)N[C@H](C(=O)N[C@@H](CO)C(N)=O)[C@@H](C)O)NC(=O)[C@H](Cc2c[nH]c3ccccc23)NC(=O)[C@H](Cc2ccc(O)cc2)NC(=O)[C@H](CCC(=O)O)NC1=O)[C@@H](C)O [Peptide 2a] (Ac-LTF[S5]EYW[S5]QLTS-NH2; staple 4-8) | ~60% |  | 
CC(=O)N[C@@H](CC(C)C)C(=O)N[C@H](C(=O)N[C@@H](Cc1ccccc1)C(=O)N[C@H]1CCCn2cc(nn2)-c2cccc(c2)-c2cn(nn2)CCC[C@@H](C(=O)N[C@@H](CO)C(N)=O)NC(=O)[C@H](CC(C)C)NC(=O)[C@H](CCC(N)=O)NC(=O)[C@H](C)NC(=O)[C@H](Cc2c[nH]c3ccccc23)NC(=O)[C@H](Cc2ccc(O)cc2)NC(=O)[C@H](CCC(=O)O)NC1=O)[C@@H](C)O [Peptide 4a] | 27% | completely cleaved | partially vulnerable to cleavage
